US20200129622A1, “METHODS OF MAKING ANTIMICROBIAL BIOPOLYMER FROM SODIUM ALGINATE AND ALGAE EXTRACT USING AMINOGLYCOSIDES, AND METHODS OF USING THE SAME” (Colorado School of Mines, priority 2018, published 2020)
Counter-ions that a name gives are not always drawn.

System: E. coli DH5α
Assay: Antimicrobial activity by agar diffusion assay (zone of inhibition)
Type: cell-based
Parameters: unit not given here
Conditions: 50 μl of 10 mg/ml aqueous antibiotic stock in agar well; 37° C., 18 hr
Description: Antimicrobial activity of polymers was checked against E. coli DH5α using agar diffusion assay. Single colony of E. coli was inoculated in 10 ml of Luria Broth (LB) and incubated till OD600 reached 0.5 (log-phase culture) and 100 μl of bacterial culture was spread over LB agar plates. To check the antimicrobial activity of the antibiotics, wells were made by punching a hole in the LB agar plates. For reference plates, 50 μl of 10 mg/ml aqueous stock solution of each antibiotic was added in the wells as shown in the top row of FIG. 6.
For experiments with alginate polymers, polymer pellets were washed three times with sterile DI water to remove any unbound free antibiotics. Each washing step included the addition of 500 μl of sterile DI water and centrifugation at 10000 rpm for 15 min. After washing, polymer pellets were placed at the center of the LB plates with E. coli DH5α. Plates were incubated at 37° C. for 18 hours (hr). The zone of inhibition, e.g., the area with no growth of bacteria around well or polymer pellet, was measured using a ruler as shown in the middle and bottom rows of FIG. 6 and in Table 3 below.
The antimicrobial property of alginateaminoglycoside polymer against E. coli DH5α was quantified by measurement of the zone of bacterial inhibition. In particular, aminoglycoside biopolymers were prepared in microcentrifuge tubes and after centrifugation, pellet was washed three times with sterile deionized water to remove free antibiotic. After washing, the polymer pellet was carefully removed using a spatula and placed at the center of the plate containing E. coli DH5α cells and incubated for 18 hr. After incubation for 18 hr, white polymer pellets became transparent to varying degrees.
In particular, circular zones of growth inhibition are visible after antibiotics and polymers were placed in wells at the centers of LB plates. […] While polymers made with KS, GS, and KDS became transparent, polymers made with TS and NS remained white.

| Compound | diameter of zone of inhibition, Antibiotic only |
| --- | --- |
| NC[C@H]1O[C@H](O[C@H]2[C@H](O)[C@@H](O[C@H]3O[C@H](CO)[C@@H](O)[C@H](N)[C@H]3O)[C@H](N)C[C@@H]2N)[C@H](O)[C@@H](O)[C@@H]1O [KS, kanamycin sulfate] | 3.4 ± 0.1 |
| [H]/N=C(/N)N[C@H]1[C@H](O)[C@@H](O)[C@H](O[C@@H]2O[C@@H](C)[C@](O)(C=O)[C@H]2O[C@@H]2O[C@@H](CO)[C@H](O)[C@@H](O)[C@@H]2NC)[C@@H](N/C(N)=N\[H])[C@@H]1O [SS, streptomycin sulfate] | 3.5 ± 0.1 |
| gentamicin sulfate [GS] | 2.9 ± 0.1 |
| kanamycin disulfate [KDS] | 3.0 ± 0.1 |
| neomycin sulfate [NS] | 3.0 ± 0.2 |
| tobramycin sulfate [TS] | 3.1 ± 0.1 |
